According to patent US11739337B2, “Gadusol derivative production in bacteria” (Oregon State University, priority 2019, dated 2023):
Read-outs that look alike come from different tables or passages of the source.

What was measured:
[1] = UV absorbance maximum (λmax); format: physicochemical; settings: for UV maximum: under acidic conditions, HPLC of culture broth
Method: Gadusporine A (see FIG. 5A), a yellow-brown solid, UV (50 mM phosphate buffer pH 7) λmax 340 nm, (50 mM acetic acid pH 3) λmax 338 nm. ^1H NMR (700 MHz, D2O) and ^13C NMR (175 MHz, D2O) see Table 3. HR-ESIMS m/z 349.1239 [M+H]^+ (calculated for C13H20N2O9, 349.1247).
Gadusporine A was produced at 20 mg/L. Gadusol was produced by pTMAO-G1 at of 29 mg/L.
Shinorine has been reported to have λmax=330 nm at pH 1.7 and λmax=334 nm at pH 7. […] Gadusporine A has a molar extinction coefficient ε=49,400, as measured in 50 mM phosphate buffer at pH 7.0, which is slightly higher than shinorine (ε=44,000), thus stronger UV absorbance activity.

[2] = Molar extinction coefficient by UV absorbance at 340 nm; format: physicochemical; settings: 50 mM phosphate buffer at pH 7.0, absorbance at 340 nm; in M-1 cm-1 (unit assumed)
Method: S. coelicolor A(3)2 pTMAO-G3 was cultured as described above at larger scales and 225 mL of S. coelicolor pTMAO-G3 culture broth was dried to ˜20 mL and passed through a C18 solid phase extraction (SPE) column. Gadusol and gadusporines were mostly un-retained, however, washing with water for 1-2 column volumes (CVs) eluted the remaining compounds. The eluent was combined and dried to ˜20 mL, which was applied directly to a 300 mL Bio-Rad AG®-1×8 (acetate form) column. After washing with 2 L of water, 500 mM acetic acid was used to elute gadusol and gadusporines. All fractions containing both gadusol and gadusporines were combined and fractions lacking gadusol but containing gadusporines were combined separately and dried. The gadusol-free fraction was further purified using the preparative HPLC as described previously to give gadusporine A (9.0 mg) (see FIG. 5A) as two different isomers. All NMR experiments were performed on a 700 MHz Bruker NMR Spectrometer with a cryo probe at the Oregon State University (OSU) NMR facility. The molar extinction coefficient of gadusporine A was determined by dissolving 0.6 mg in 50 mM phosphate buffer at pH 7.0 in a 25 mL volumetric flask then measuring UV absorbance at 340 nm.

[3] = cited from earlier work
[4] = Solubility in methanol; format: physicochemical
[5] = comparison value for shinorine; cited from earlier work
[6] = background statement; cited from earlier work

In the case of `COC1=C(NCC(=O)O)C[C@@](O)(CO)[C@@H](O)/C1=N\[C@@H](CO)C(=O)O` [gadusporine A, (S)-2-(((5R,6S,E)-3-((carboxymethyl)amino)-5,6-dihydroxy-5-(hydroxymethyl)-2-methoxycyclohex-2-en-1-ylidene)amino)-3-hydroxypropanoic acid], the “UV λmax” value ([1]; 50 mM acetic acid pH 3) is reported as 338 nm, the “UV λmax” value ([1]; 50 mM phosphate buffer pH 7) is reported as 340 nm and the λmax ([1]; pH 2.0) is reported as 338 nm. For the same compound, the λmax ([1]; pH 7.0) was 340 nm, the UV maximum [1] was 338 nm and the “molar extinction coefficient ε” value [2] was 49,400.

In the case of prasiolin, the λmax ([3]; background, no pH given) is listed as 324 nm.

For `C/C=C/NC1=C(OC)C(=NCC(=O)O)CC(O)(CO)C1` (centres unmarked) [palythene], the λmax ([3]; background, no pH given) is listed as 360 nm.

In the case of `COC1=C(NCC(=O)O)C[C@@](O)(CO)[C@@H](O)/C1=N\[C@@H](C)C(=O)O` [gadusporine B, (S)-2-(((5R,6S,E)-3-((carboxymethyl)amino)-5,6-dihydroxy-5-(hydroxymethyl)-2-methoxycyclohex-2-en-1-ylidene)amino)propanoic acid], the “UV λmax” value ([1]; 50 mM acetic acid pH 3) is reported as 338 nm, the “UV λmax” value ([1]; 50 mM phosphate buffer pH 7) is reported as 340 nm and the UV maximum [1] is reported as 338 nm. The solubility in methanol [4] was “not very soluble in methanol”.

In the case of `COC1=C(NCC(=O)O)C[C@@](O)(CO)C/C1=N\[C@@H](CO)C(=O)O` [Shinorine, shinorine], the solubility in methanol [4] is given as “readily dissolved in methanol”, the λmax ([3]; pH 1.7, reported) is given as 330 nm and the λmax ([3]; pH 7, reported) is given as 334 nm. The “molar extinction coefficient ε” value [5] was 44,000.

For `COC1=C(O)CC(O)(CO)C(O)C1=O` (centres unmarked) [Gadusol, gadusol], the antioxidant activity [6] is given as “antioxidant activity”, the UV absorbance maxima ([3]; pH 2.5) is given as 268 nm and the UV absorbance maxima ([3]; pH 7.0) is given as 296 nm.

In the case of `C/C=C\NC1=C(OC)C(=NCC(=O)O)CC(O)(CO)C1` (centres unmarked) [usujirene], the λmax ([3]; background, no pH given) is given as 357 nm.
